Measured values: patent US4820717A, “Antimicrobial aromatic derivatives substituted by an (omega amino) alkanol group and compositions containing them” (priority 1985, dated 1989)
≈ marks a conversion by molar mass, not a printed value.

Columns and labels:
[1] = Acute toxicity by oral route in mice; settings: mouse, in vivo, per os, male CD1 mice, 14 days observation
Description: Acute toxicity was tested by oral route in mice. This test was carried out with male mice of CD1 strain, obtained from the Charles Reever breeding farm. Each batch was composed of 5 animals of body weight varying between 24 and 30 g kept in the same cage. The animals were kept fasting for 6 hours before the treatment. For every test, the product, placed in suspension in a 10% solution of gum arabic, was administered by forcible feeding with an oesophageal probe. Food was then served to the animals 4 hours after the forcible feeding and the animals were kept under observation for a period of 14 days after the administration. During that period, the death rate is recorded for each batch of animals used in the experiment and, wherever possible, the LD50 is determined by the method of J. T. Litchfield and F. Wilcoxon, J. Pharmacol. 1949, 95, 99-113.
The results are given in mg of substance tested per kg of body weight. They are compiled in Table III below.

[2] = tested on: Staphylococcus aureus CNCM 53154; assay: Bactericidal activity (MBC), strain 5; type: cell-based; settings: CNCM53154, 20 min, strain 5, 20 minutes of contact, read-out: Minimum bactericidal concentration (MBC)
Source text: (§1) The bactericidal activity of the products according to the invention has been analyzed on various strains by the method described hereafter:
(§2) A bacterial inoculum is placed in contact with different dilutions of the product to be tested, and this for a limited period of time. At the end of contact, an aliquot part of the mixture bacterial suspension/product is deposited on the surface of an agar culture medium containing an agent neutralizing the antibacterial activity of the product. The bactericidal concentration retained is the smallest concentration of the product from which bacteria stop growing. Said concentration is expressed in μg/ml.
(§3) The bacterial strains selected for the analysis are:
5--Staphylococcus aureus CNCM 53154.
(§4) The second strain is supported on a Worgel Fergusson medium, the other strains being supported on Tryptic Soy Agar-Difco (TSA) commercialized by Difco.
(§5) After a 24-hour culture period at 37° C., the microbial growth is collected by means of glass beads and of 10 ml of diluent containing 1 g of tryptone and 8.5 g of sodium chloride in 1000 ml of distilled water. The formed suspension is stirred and the percentage of light transmission at 620 nm is measured with a spectrophotometer:
(§6) The bacterial inoculum corresponds to a 1/20th dilution of this bacterial suspension.
(§7) Plates equipped with cupules receive different dilutions of the product to be analyzed. These dilutions are placed in contact with the different bacterial suspensions by means of a multiple-center inoculator. After 20 minutes of contact, aliquot parts are transferred by means of said inoculator on the surface of an agar medium (TSA) in Petri dishes, containing an activity-neutralizing agent, namely 20 g of lubrol W, 25 g of Tween 80 and 2.5 g of sodium thiosulfate in 1000 ml of TSA (Difco). The efficiency of the neutralizing agent is controlled for each product to be analyzed by depositing on the surface of the culture medium an aliquot part of the dilution of the product to be analyzed. After drying, the corresponding inoculum is deposited in the same place. An inoculum control is performed on an agar medium with or without neutralizing agent. Readings are taken after 48 hours of incubation at 37° C.

[3] = tested on: Streptococcus faecalis CNCM 5855; assay: Bactericidal activity (MBC), strain 4; type: cell-based; settings: Enterococcus faecalis, CNCM5855, 20 min; strain 4, 20 minutes of contact; read-out: Minimum bactericidal concentration (MBC)
Source text: as §1, §2, §3
4--Streptococcus faecalis CNCM 5855;
as §4, §5, §6, §7

guinea-pig skin [4] = assay: Preliminary skin tolerance in the guinea-pig; type: in vivo; settings: 0.2 ml on shorn skin once a day, six days out of seven, three weeks
Description: (§8) The tolerance of the products according to the invention was tested in the guinea-pig. The animals are shorn on both sides of the middle line of the back, the shearing being kept up every other day. Batches of 6 animals receive, on the shorn part, 0.2 ml of an aqueous or alcoholic solution of the product according to the invention. When these products are in alcoholic solution, one control batch of animals receives the alcohol on one side.
To study the preliminary skin tolerance, the treatment is applied once a day, six days out of seven, for three weeks. The observations made of the skin are concerned with the presence of erythema, skin eruptions or hyperkeratosis, the intensity of which is graduated according to a preset scale.

guinea-pig = assay: Phototoxic or photoallergic effect on the guinea-pig; type: in vivo
Source text: The products according to the invention have also been tested for a phototoxic or photoallergic effect on the guina-pig. The technique used is that of J. Unkovic, G. Mazue and J. Girard, in "Sciences et Techniques de l'Animal de Laboratoire", 1983, 8 (3), 149-160. This is an adaptation of the techniques described by L. C. Harber et al., Arch. Dermatol., 1967, 96, 646-656 and L. J. Vinson et al., Arch. Dermatol., 1966, 17, 123-130.

[5] = tested on: Torulopsis glabrata 072023; assay: Antifungal activity (MFC), strain 4; type: cell-based; settings: 20 min; yeast strain 4; read-out: Minimum fongicidal concentration (MFC)
Source text: as §2, §7
(§9) The antifungal activity of the products according to the invention was also determined with the aforedescribed method.
(§10) The fungal strains selected for the analysis are:
(§11) These strains are supported on a Sabouraud Dextrose agar medium commercialized by Difco; the technique used is the same as that used in the analysis of the antibacterial activity. After 48 hours of culture at 37° C., the microbial growth is collected with glass beads and 5 ml of diluent containing 1 g of tryptone and 8.5 g of sodium chloride in 1000 ml of distilled water; 5 ml of the diluent are then added. […] A 1/100th dilution of this suspension, observed between slides under a microscope 40-lens, should show 10 cells per frame, this corresponding to 1,000,000 yeasts per ml.

Candida tropicalis 3834 = assay: Antifungal activity (MFC), strain 2; type: cell-based; settings: 20 min; yeast strain 2; read-out: Minimum fongicidal concentration (MFC)
Source text: as §2, §7, §9, §10
2--Candida tropicalis 3834;
as §11

[6] = tested on: Pseudomonas aeruginosa CNCM A22; assay: Bactericidal activity (MBC), strain 3; type: cell-based; settings: CNCMA22, 20 min, strain 3, 20 minutes of contact, read-out: Minimum bactericidal concentration (MBC)
Source text: as §1, §2, §3
3--Pseudomonas aeruginosa CNCM A22;
as §4, §5, §6, §7

Candida parakruzei 3918 = assay: Antifungal activity (MFC), strain 3; type: cell-based; settings: 20 min; yeast strain 3; read-out: Minimum fongicidal concentration (MFC)
Source text: as §2, §7, §9, §10
3--Candida parakruzei 3918;
as §11

[7] = tested on: Encapsulated klebsiella pneumoniae R030; assay: Bactericidal activity (MBC), strain 2; type: cell-based; settings: 20 min, strain 2, 20 minutes of contact, read-out: Minimum bactericidal concentration (MBC)
Source text: as §1, §2, §3
2--Encapsulated klebsiella pneumoniae R030;
as §4, §5, §6, §7

guinea-pig skin [8] = assay: Skin sensitization test in the guinea-pig; type: in vivo; settings: one week treatment after two weeks' rest
Description: as §8, with “side. The skin sensitization test is performed on the same animals after two weeks' rest. The treatment lasts one week, it is identical to the preceding one. The evaluation is based on the same criteria and on the same scale as used to determine the local tolerance.” for “side.”

[9] = tested on: Escherichia Coli CNCM 54125; assay: Bactericidal activity (MBC), strain 1; type: cell-based; settings: 20 min, strain 1, 20 minutes of contact, read-out: Minimum bactericidal concentration (MBC)
Source text: as §1, §2, §3
1--Escherichia Coli CNCM 54125;
as §4, §5, §6, §7

[10] = tested on: Candida albicans CNCM 1180; assay: Antifungal activity (MFC), strain 1; type: cell-based; settings: 20 min; yeast strain 1; read-out: Minimum fongicidal concentration (MFC)
Source text: as §2, §7, §9, §10
1--Candida albicans CNCM 1180;
as §11

lymphoma cells of mice = settings: cited from earlier work

| SMILES | LD50 at 336 h [1] | MBC [2] | MBC [3] | products found to have a bad tolerance (guinea-pig skin [4]) | products found to have a phototoxic or photoallergic effect (guinea-pig) | MFC [5] | MFC (Candida tropicalis 3834) | MBC [6] | MFC (Candida parakruzei 3918) | MBC [7] | products found to have a sensibilizing effect (guinea-pig skin [8]) | MBC [9] | MFC [10] | effect on the cellular division of the lymphoma cells (lymphoma cells of mice) |
| --- | --- | --- | --- | --- | --- | --- | --- | --- | --- | --- | --- | --- | --- | --- |
| OCC(CCN1CCCCC1)c1cccc2ccccc12 (centres unmarked) [SR 43 077 A] | 300 to 400 mg/kg | 600 µg/mL (≈ 2120 µM) | 600 µg/mL (≈ 2120 µM) | None | None | 5000 µg/mL (≈ 17600 µM) | 1000 µg/mL (≈ 3530 µM) | 800 µg/mL (≈ 2820 µM) | 1000 µg/mL (≈ 3530 µM) | 600 µg/mL (≈ 2120 µM) | None | 600 µg/mL (≈ 2120 µM) | 1000 µg/mL (≈ 3530 µM) | – |
| OCC(CCN1CCCCCC1)c1ccc2ccccc2c1 (centres unmarked) [SR 43 270 A] | – | 1000 µg/mL (≈ 3360 µM) | 2000 µg/mL (≈ 6720 µM) | None | None | 5000 µg/mL (≈ 16800 µM) | 1000 µg/mL (≈ 3360 µM) | 1000 µg/mL (≈ 3360 µM) | 1000 µg/mL (≈ 3360 µM) | 1000 µg/mL (≈ 3360 µM) | None | 1000 µg/mL (≈ 3360 µM) | 500 µg/mL (≈ 1680 µM) | – |
| CC(C)N(CCC(CO)c1cccc2ccccc12)Cc1ccccc1 (centres unmarked) [SR 43 292 A] | 500 to 750 mg/kg | 300 µg/mL (≈ 863 µM) | 300 µg/mL (≈ 863 µM) | None | None | 2000 µg/mL (≈ 5760 µM) | 1000 µg/mL (≈ 2880 µM) | 300 µg/mL (≈ 863 µM) | 1000 µg/mL (≈ 2880 µM) | 300 µg/mL (≈ 863 µM) | None | 300 µg/mL (≈ 863 µM) | 1000 µg/mL (≈ 2880 µM) | – |
| CN(C)CCC(CO)c1cccc2ccccc12 (centres unmarked) [SR 42 643 A] | 400 mg/kg | 1000 µg/mL (≈ 4110 µM) | 2000 µg/mL (≈ 8220 µM) | None | None | – | – | 1000 µg/mL (≈ 4110 µM) | – | 5000 µg/mL (≈ 20500 µM) | None | 5000 µg/mL (≈ 20500 µM) | – | – |
| CN(C)CCCCCCC(CO)c1cccc2ccccc12 (centres unmarked) [SR 43 727 A] | 580 mg/kg | 200 µg/mL (≈ 668 µM) | 20 µg/mL (≈ 66.8 µM) | None | None | – | – | 50 µg/mL (≈ 167 µM) | – | 50 µg/mL (≈ 167 µM) | None | 20 µg/mL (≈ 66.8 µM) | – | – |
| OCCc1ccc2ccccc2c1 [2-naphtyl ethanol] | – | – | – | – | – | – | – | – | – | – | – | – | – | inhibits the cellular division of the lymphoma cells of mice |
| CC1CCN(CCCCCCC(CO)c2cccc3ccccc23)CC1 (centres unmarked) [SR 43 293 A] | ≤ 250 mg/kg | 200 µg/mL (≈ 566 µM) | 200 µg/mL (≈ 566 µM) | None | None | 1000 µg/mL (≈ 2830 µM) | 200 µg/mL (≈ 566 µM) | 200 µg/mL (≈ 566 µM) | 500 µg/mL (≈ 1410 µM) | 200 µg/mL (≈ 566 µM) | None | 200 µg/mL (≈ 566 µM) | 500 µg/mL (≈ 1410 µM) | – |
| Cl.OCC(CCCCCCN1CCCCC1)c1cccc2ccccc12 (centres unmarked) [SR 43 157 A, 8-piperidino-2-(1-naphthyl)-octanol hydrochloride] | – | 200 µg/mL | 200 µg/mL | None | None | 1000 µg/mL | 300 µg/mL | 100 µg/mL | 300 µg/mL | 200 µg/mL | None | 200 µg/mL | 300 µg/mL | – |
| OCC(CCN1CCC(Cc2ccccc2)CC1)c1cccc2ccccc12 (centres unmarked) [SR 43 383 A] | 1180 mg/kg | 100 µg/mL (≈ 268 µM) | 100 µg/mL (≈ 268 µM) | None | None | 500 µg/mL (≈ 1340 µM) | 100 µg/mL (≈ 268 µM) | 100 µg/mL (≈ 268 µM) | 100 µg/mL (≈ 268 µM) | 100 µg/mL (≈ 268 µM) | None | 100 µg/mL (≈ 268 µM) | 100 µg/mL (≈ 268 µM) | – |
